In general, IC50 refers to the concentration at which inhibition is half-maximal. Lower therefore signals inhibition by little substance.

Assay type in all cases: functional, cell-based
For experiment [1], the system named is HT-29. The experiment can be described thus: Cytotoxicity against human HT-29 cells by SRB assay.
Experiment [2] concerns MCF7. The experiment can be described thus: Cytotoxicity against human MCF7 cells by SRB assay. Background: Sulforhodamine B stains cellular protein and so reports cell mass.
Experiment [3] concerns HL-60. In words: Cytotoxicity against human HL60 cells by SRB assay.

Take `COc1cccc2c1C(=O)c1c(O)c3c(c(O)c1C2=O)C[C@@](O)(C(=O)CO)C[C@@H]3O[C@H]1C[C@H](N)[C@H](O)[C@H](C)O1` [DOXORUBICIN]: the figures for the IC50 in experiment [1], in experiment [2] and in experiment [3] were 0.33 µM, 0.12 µM and 0.016 µM, respectively.

With `CC(C)=CCCC(C(=O)O)[C@@H]1[C@@H](O)C[C@]2(C)C3=CC[C@H]4C(C)(C)[C@@H](O)CC[C@]4(C)[C@H]3CC[C@@]12C` (some centres not stated) [TOOSENDANIC ACID A], the IC50 in experiment [1], in experiment [2] and in experiment [3] was less than 10 µM throughout.

On to `CC(C)=CCCC(C(=O)O)[C@@H]1[C@@H](O)C[C@]2(C)C3=CC[C@H]4C(C)(C)[C@H](O)CC[C@]4(C)[C@H]3CC[C@@]12C` (some centres not stated) [TOOSENDANIC ACID B], for which the IC50 in experiment [1], in experiment [2] and in experiment [3] was less than 10 µM throughout.

Take `CC(C)(O)[C@@H]1CC[C@H]([C@@H]2[C@@H](O)C[C@]3(C)C4=CC[C@H]5C(C)(C)C(=O)CC[C@]5(C)[C@H]4CC[C@@]23C)[C@H]1O` [TOOSENDANONE A]: the half-inhibitory concentration (IC50) in experiment [1], in experiment [2] and in experiment [3] was less than 10 µM throughout.

The values are drawn from ChEMBL document CHEMBL1152324, “Protolimonoids from Melia toosendan” (J Nat Prod, 2009).
